These results are taken from PMC10103840 (Frontiers in Pharmacology, 2023).

The conditions of data set [1]: human volunteers, ref Jackson et al., 2014; cited from earlier work.
Data set [2] has as its system placental tissue. The protocol:
The stability of volumes in each reservoir ensured the integrity of the circuits and served for the detection of fetal-maternal (FM) leaks (≤4 mL/h). Throughout the perfusion additional quality control measures included a physiological pH-range (7.2 ± 0.1) and a controlled fetal perfusion pressure (≤ 70 mmHg). Samples were taken at defined timepoints over a 240 min period, immediately centrifuged, and stored in glass micro-inserts (VWR) at −80°C for bioanalytical analysis. A blood gas analysis (pH, pO2, pCO2, glucose, lactate; ABL800 FLEX) of fetal and maternal samples was performed to ensure viability and metabolic activity of placental tissue during perfusion. The production of the placental hormones beta-human chorionic gonadotropin (β-hCG) and leptin was monitored by standard ELISA to assess tissue functionality ex vivo [see ([Spiess et al., 2022a]) and references therein]. For β-hCG, flat-bottom microplates were coated with rabbit polyclonal anti-hCG antibody (Agilent Dako) at a 1:1′000 dilution and the mouse monoclonal anti-hCG (abcam; 1:5′000) served as secondary antibody. The peptide hormone hCG (Lucerna-Chem) was used as reference standard; standard final concentrations of between 100 mU/mL and 2.5 mU/mL were prepared by serial dilution in seven steps and used in each plate. The goat anti-mouse-IgG-horseradish peroxidase conjugate (abcam) antibody was used at a 1:5′000 dilution. The substrate consisted of O-phenylenediamine dihydrochloride. […] For leptin, microtiter plates were coated with mouse monoclonal anti-human leptin/OB (R&D Systems; 1:250). The second antibody was biotinylated monoclonal mouse anti-human leptin/OB (R&D Systems), used at a dilution of 1:1′000. The standard was recombinant human leptin (R&D Systems); standard final concentrations of between 2′000 pg/mL and 15.6 pg/mL were prepared by serial 1:2 dilution in seven steps and used in each plate. […] The conjugate streptavidin-horseradish peroxidase (Southern Biotechnology Associates, 1:4′000) was added and the plate incubated for 60 min. For the development, ready-to-use tetramethylbenzidine substrate solution (Thermo Fischer) was used.
Concentrations in the placental perfusion profiles (Figure 2) and system adherence tests (Figure 4) were expressed as a percentage (%) of the maternal concentration at the beginning of the perfusion, whereby the maternal concentration, measured in the maternal reservoir, was adjusted to the total volume of the full maternal circuit (maternal reservoir and dead volume of the system). The FM concentration ratio (FM ratio; Figure 3) was calculated for each timepoint and plotted against the perfusion time (min). The final recovery (%) is the sum of the amounts of study compound present in both perfusates at the end of a perfusion, and the sample removed during the experiment. Glucose consumption and lactate production are presented as the sum of changes (from the beginning to the end of perfusion) in total content (μmol) in both circuits, normalized by total perfusion time (min) and weight (g) of perfused cotyledon. […]
Multiple group comparisons were performed for the glucose consumption, lactate production, β-hCG and leptin production using the non-parametric Mann–Whitney U with GraphPad Prism (version 9.3.1 for macOS; GraphPad Software). […] Data are expressed as mean ± SD of three to four independent experiments.

A short description of data set [3]: in vitro. The following applies: human, pH 7.2.
A short description of data set [4]: Stability assay in PBS, perfusion medium and placental homogenates. Format: in vitro ADME, human. On the procedure: In short, after spiking the various matrices with the study compounds, samples were either processed immediately for U(H)PLC-MS/MS analysis (C0), or kept at 4°C/37°C on an orbital shaker (600 rpm) for 360 min before processing for U(H)PLC-MS/MS analysis. Samples were processed via solid phase extraction or protein precipitation prior to analysis.

Data set [5] in a line: System adherence test (empty perfusion chamber, maternal circuit only). The data set is classed as in vitro ADME. The following applies: % of initial concentration, 5 μM in PM, no placental tissue, 240 min, n = 3. On the procedure: The dissolution and adherence of the compounds to the perfusion equipment and to the tubing system was assessed before starting perfusions with human placentae. […] The compounds were directly dissolved in PM at a final concentration of 5 μM (100 mL reservoir) and individually tested in three independent experiments (n = 3).

Data set [6] deals with placental tissue. The data set is described as follows: Histopathological evaluation of perfused placentae. Also on record: species or system human. On the procedure: Immediately after perfusion the placentae were fixed in 4% paraformaldehyde for at least 24 h. Tissue samples from representative placental tissue sections, each from perfused, non-perfused, and transitional area were prepared to perform a pathological examination. For this purpose, the tissue was embedded in paraffin, cut (∅ 2-3 µm), and stained (standard hematoxylin-eosin stain, Braun-Brenn modified Gram stain) according to the standards of routine histopathological diagnosis of the Department of Pathology and Molecular Pathology (University Hospital of Zurich). […] The blood void and width of the intervillous space and fetal blood vessels in the chorionic villi provided information about the quality of perfusion, and particular attention was paid to the presence of intravascular thrombi. General signs of degeneration, such as vacuolization of the cytotrophoblast, villous vascular endothelium viability, and formation of hydropic villous changes compared with non-perfused tissue indicated whether tissue damage might have occurred during perfusion. Microscopic effects and placental tissue damage in the perfused area were expressed in relative amounts (%) to the non-perfused tissue.

In another data set the test system is BeWo cells. As to conditions: ref Spiess et al., 2022b; cited from earlier work.
The nature of data set [7]: Transwell control experiments across cell-free inserts. As to conditions: data not shown.
For data set [8] the following is noted: 60 min, 5 μM.
A short description of data set [9]: in vitro. As to conditions: human. On the procedure: (§1) BeWo b30 choriocarcinoma cells were obtained from Dr. Tina Buerki-Thurnherr (Empa, St. Gallen, Switzerland), with permission from Dr. Alan L. Schwartz (Washington University School of Medicine, St. Louis MO, USA), and were cultivated in F-12 K Nut Mix supplemented with 10% heat inactivated FBS, antibiotics (100 U/mL penicillin, 100 µg/mL […]), and 2 mM L-glutamine (all from Gibco). The cells were cultivated in a humidified incubator at 37°C and 5% CO2 atmosphere.
(§2) BeWo b30 cells were cultured on Transwell® polycarbonate membrane inserts (24-well format; 0.4 μm pore size, 0.33 cm^2 cell growth area, 200 μL apical volume, 1′000 μL basolateral volume; Corning, Sigma-Aldrich) at a density of 60′000 cells/well. These inserts were then cultivated in a cellZscope (nanoAnalytics) at 37°C/5% CO2. Cell culture medium was replaced every 2 days up to 11 days to find the best possible conditions.
(§3) BeWo b30 cells were cultured in transparent 24-well plates under the same conditions as mentioned above and transferred to the cellZscope® at day 8 to record TER and Ccl values. After 24 h (day 9) and when a TER of 30–60 Ωcm^2 was reached and Ccl was between 0.5 and 5.0 μF/cm^2, the permeability assay was initiated by adding valerenic acid (5 μM; in HBSS with 4% BSA) to the apical compartment, while the basolateral compartment contained 1′000 μL of HBSS only. […] Samples (150 μL apical, 800 μL basolateral) were collected at each time point (0, 15, 30, 60 min; one insert per time point). After 60 min, a part of the inserts was transferred back to the cellZscope® to monitor TER and Ccl values during another 24 h. The cells grown on the other part of the inserts were quickly washed with 200 μL of cold HBSS and then lysed with 700 μL acetonitrile (100 μL apical, 600 μL basolateral) for 40 min on an orbital shaker (450 rpm, room temperature) to determine the test substance cell contents.
(§4) Apparent permeability coefficients (Papp) were calculated according to the following Eq. 1: Papp cm/s=∆Q/∆t/ACA0 (1) where ΔQ/Δt is the rate of amount transported to the receiver compartment, A is the membrane surface area (0.33 cm^2), and C A0 is the initial concentration in the apical compartment.
(§5) The clearance values were calculated according to the following Eq. 2 ([Neuhaus et al., 2008]): Clearance μL=CBnVB/CA−VB/VA∙∑CBn−1 (2) where C Bn and V B are the concentration and volume in the basolateral compartment at a specific timepoint (n), respectively; C A and VA are the concentration and volume in the apical compartment, respectively, and C Bn-1 is the total amount of substance found in the basolateral compartment up to the previous timepoint (n-1).
(§6) Recovery (mass balance) of each compound was calculated according to the following Eq. 3: Recovery %=CAfVA+CBfVB+CCfVC/CA0VA∙100 (3) where C Af , C Bf and C Cf are the final compound concentrations in apical, basolateral, and cellular compartments, respectively; C A0 is the initial concentration in the apical compartment, and V A , V B and V C are the volumes in the respective compartments.
(§7) For valerenic acid, 150 µL of the IS in MeOH were added to 50 µL of sample, and the mixture centrifuged for 20 min at 13′200 rpm/16′100 rcf at 10°C (Centrifuge 5415R, Eppendorf). An aliquot (50 µL) of the supernatant was collected and transferred into HPLC vials. Vials were centrifuged for additional 20 min prior to U(H)PLC-MS/MS analysis in full loop mode (2 µL).

The subject of the next data set is BeWo b30 cells. Nature of the data set: in vitro. As to conditions: human, 60 min, 5 μM. On the procedure: as §1, §2, §3, §4, §5, §6, §7
Where [10] appears, read: non-perfused area of same placenta.

The Papp is a coefficient for how fast a substance crosses the barrier. High values mean ready permeation, low ones poor permeation.

Where “and” joins values, the source holds several entries; their conditions need not be identical. Equal values may be shown once.

As for `Cc1cc(O)c2c(=O)c3c(O)cc(O)c4c5c(O)cc(O)c6c(=O)c7c(O)cc(C)c8c1c2c(c34)c(c78)c65` [Hypericin, hypericin], in data set [1], the Plasma concentration is 2.2 ng/mL and 4.36 nM. Besides, the “Effect on β-hCG and leptin production (in words)” value in the data set on placental tissue [2] (5 μM, 240 min perfusion, vs antipyrine control perfusions) is “neither hyperforin, hypericin, nor valerenic acid inhibited their production in a statistically significant manner”. The recovery at 240 min, 5 μM in “in vitro [3]” came out at 54%. For the same compound, in data set [4] (360 min, 4°C and 37°C), the “Stability in PBS compared to PM (in words)” value was “less stable”. Moreover, in data set [4] (human, tissue homogenate, 6 h), the “Remaining in placental homogenate, Donor 1” value was found to be 101.0%; the “Remaining in placental homogenate, Donor 2” value is 82.7%; the “Remaining in placental homogenate, Donor 3” value was 93.7%. Moreover, in data set [5], the “Compound lost / adhering to the perfusion equipment” value was 3.8% and 3.8% ± 13.1%. Besides, in the data set with human placental barrier (240 min perfusion, 5 μM maternal), the “Transplacental transfer (in words)” value was “did not cross the human placental barrier”. For the same compound, the “Concentration in the maternal compartment” value with human placental barrier (human, 240 min, 5 μM, pH 7.2) was “approximately 46 % of initial concentration”. In the data set with human placental barrier (maternal perfusate after 240 min, % of amount in maternal sample at beginning), the “M perfusate (% found)” value is recorded as 36.7%. For the same compound, the “Global placental pathology: Else” value with placental tissue [6] was “CCB and N”. Besides, in the data set with placental tissue [6] (after perfusion), the “Extravasations into villous stroma (in words)” value is “no extravasations into villous stroma” and the “Ruptures of villous vessels (in words)” value is listed as “no ruptures of villous vessels”. In addition, in the data set with placental tissue [6] (setting [10]), the “Hydropic changes in non-perfused” value was 5% and 0%; the “Intervillous spaces without blood in non-perfused” value was 40% and 80%; the “Vacuolated trophoblast in villi: in non-perfused too?” value turned out to be 0%. In addition, the “Thrombi in vessels of stem villi (in words)” value with placental tissue [6] (perfused and non-perfused) is given as “no thrombi detectable”. Besides, the “Intervillous spaces without blood” value in the data set with placental tissue [6] (perfused area) is 90% and 95%. Besides, the “Emptiness of villous vessels” value in the data set on placental tissue [6] (perfused area, individual experiments) was 90% and 80% and 85%. For the same compound, in the data set on BeWo cells, the “Concentration lowering the viability of placental cells” value is 1000 nM, the “Concentration with genotoxic effects” value was 10000 nM and the “Concentration with increased apoptosis / apoptotic effects” value was 1000 nM. The “Passage across cell-free inserts (in words)” value in data set [7] is given as “did not cross the cell-free inserts to a sufficient extent”.

As for `Cc1cc(=O)n(-c2ccccc2)n1C` [Antipyrine, antipyrine, reference compound], the “Clearance across cell-free insert” value in data set [8] was determined as 33.5 µL. In the data set with placental tissue [2], the Lactate production is 0.27 µmol/g/min, the Leptin production came to 2.26 ng/min, the Total glucose consumption is recorded as 0.39 µmol/g/min and the β-hCG production worked out at 1.44 U/min. For the same compound, in “in vitro [9]”, the apparent permeability coefficient (Papp) at 60 min, 5 μM was determined as 28 ×10⁻⁶ cm/s and the recovery at 60 min, 5 μM worked out at 81.9%. The “Clearance across BeWo b30 cell layer” value with BeWo b30 cells turned out to be 35.5 µL. For the same compound, in the data set “in vitro [3]”, the recovery at 240 min, 5 μM came out at 79.2%. In [5], the “Compound lost / adhering to the perfusion equipment” value was −2.2% and −2.2% ± 7.0%. In addition, in the data set on human placental barrier (human, 5 μM, pH 7.2), the “Sampling (% found)” value was 21.8 ± 1.3%; the “Time to equilibrium between fetal and maternal compartment” value amounted to 120 min; the “Time to equilibrium between fetal and maternal concentrations (FM ratio)” value is 90 min. Also, the “FM ratio at 90 min” value in the data set with human placental barrier (human, 90 min, 5 μM, pH 7.2) was found to be 1.03. For the same compound, in the data set with human placental barrier (human, 120 min, 5 μM, pH 7.2), the “FM ratio at 120 min” value is on record as 0.98. Moreover, the “FM ratio at 180 min” value with human placental barrier (human, 180 min, 5 μM, pH 7.2) stood at 1.05. Further, the “FM ratio at 240 min” value with human placental barrier (human, 240 min, 5 μM, pH 7.2) came out at 0.92.
